Source: patent publication US9403778B2, “Agents that prevent or repair skin damage” (Regents of the University of Minnesota, priority 2012, dated 2016)

How the values were obtained:
[1] = system: SKH-1 hairless mouse dorsal skin; experiment: Test D. Murine animal studies: thymine dimer formation (DNA damage) in dorsal skin; type: in vivo
Method: Test D. Murine Animal Studies
(§1) The UVA, UVB and Solar Simulated Light (SSL) treatment groups included mice that were left untouched in their cages (no preventative treatment) and mice treated topically on their backs with cream vehicle or AR compounds in the cream vehicle and rubbed with a glove. At 20 minutes post treatment the mice were exposed to 180 mJ/cm^2 of UVA, UVB or SSL equivalent to one hour of noon day summer sunlight. One, four, eight and twenty-four hours post UVA, UVB or SSL exposure, the mice were euthanized by IP Ketamine/Xylazine injection and bled.
(§2) The no UVA, UVB and SSL treatment groups included mice which were left untouched in their cages (no preventative treatment) and mice treated topically on their backs with cream vehicle and AR compounds in cream vehicle as indicated above. After treatment the mice were placed back into their cages, away from sunlight. One, four, eight and twenty-four hours post treatment, the no UVA, UVB and SSL treated mice were euthanized by IP Ketamine/Xylazine injection and bled.
(§3) For the animal groups above, post euthanasia, the dorsal and belly skin was collected and preserved in Zamboni's fixative for future studies. […] The skin was analyzed in-house by immunohistostaining (p53, thymine dimer, XPC and other DNA repair enzymes, collagen, elastin, etc.) and confocal microscopy. […]

[2] = system: xpc; experiment: Test E. Human skin study: xpc production
Method: Human skin was obtained from the University of Minnesota BioNet Tissue Procurement Facility and stored on ice or in cell culture media until ready to be used. All samples were kept away from sunlight. The skin was cut into pieces and placed in 6-well cell culture plates with a small amount of culture media at the bottom of the well but not enough to cover the top of the tissue. Using a gloved hand, the skin was rubbed with cream vehicle or AR drug in the cream vehicle. At 20 minutes post treatment the skin was exposed to 180 mJ/cm^2 of UVA, UVB or Solar Simulated Light (SSL) equivalent to one hour of noon day summer sunlight. Post UVA, UVB or SSL exposure, additional media was placed in the bottom of the wells and the plates moved to the tissue culture incubator (37° C., 5% CO2). Samples were removed from the incubator and placed in Zamboni's fixative for future studies at one, four, eight and twenty-four hours post UVA, UVB or SSL exposure.
Samples not exposed to UVA, UVB or SSL light were placed into 6-well plates with a small amount of cell culture media but not enough to cover the top of the tissue and stored in the cell culture incubator. […]
All skin samples were analyzed in-house by immunohistostaining (p53, thymine dimer, XPC and other DNA repair enzymes, collagen, elastin, etc.) and confocal microscopy.

[3] = system: xpc; experiment: Test D. Murine animal studies: up-regulation of DNA repair enzyme xpc in dorsal skin; type: in vivo, mouse; conditions: 5% in cream vehicle, topical
Method: as §1, §2, §3

SMILES | thymine dimer immuno-reactivity of skin section ([1]; 5% in cream vehicle, topical, no SSL irradiation, 8 hour time point) | xpc levels / xpc staining in non-irradiated human skin ([2]; human skin not exposed to SSL, compared with SSL only control) | time post application at which xpc stimulation is still evident ([2]; non SSL damaged human skin) | xpc immuno-reactivity (xpc antibody) ([3]; no SSL irradiation) | protection against thymine dimer formation (DNA damage) ([1]; in cream vehicle, topical 20 minutes prior to UVB 6 KJ/m^2, harvested 4 hours after irradiation, vs UV only control) | xpc production in SSL exposed skin ([3]; solar simulated light equivalent to 1 h noon time summer sun light, vs SSL cream-only control)
C[C@@]12C(=O)NC(=O)N3CCCN4C(=O)NC(=O)[C@]1(C)[C@H]4[C@H]32 [Compound 10] | completely negative | higher levels of xpc than the SSL only control | ≥ 8 h | significant immuno-reactivity |  | 
CCCC(=O)N(CCn1cc(C)c(=O)[nH]c1=O)CCn1cc(C)c(=O)[nH]c1=O [Compound 24a] |  |  |  |  | protected against thymine dimer formation | stimulated xpc production
